# Laboratory results reported in ChEMBL document CHEMBL3885881, “DrugMatrix”.
# Species: Rattus norvegicus
# Experiment: DrugMatrix - Regimen: Daily Repeat
# Format: toxicity, organism-based, Sprague-Dawley
# Design: regimen Daily Repeat, gender Male, age 6-8 weeks
# Conditions: in vivo, po, route oral GAVAGE, vehicle .5 % CMC; for ABSOLUTE BASOPHIL / ABSOLUTE EOSINOPHIL / ABSOLUTE LYMPHOCYTE / ABSOLUTE MONOCYTE / ABSOLUTE SEGMENTED NEUTROPHIL / BASOPHIL / EOSINOPHIL / ERYTHROCYTE COUNT / HEMATOCRIT / HEMOGLOBIN / LEUKOCYTE COUNT / LYMPHOCYTE / MEAN CORPUSCULAR HEMOGLOBIN / MEAN CORPUSCULAR HEMOGLOBIN CONCENTRATION / MEAN CORPUSCULAR VOLUME / MONOCYTE / NEUTROPHIL / NUCLEATED RED BLOOD CELLS / PLATELET COUNT: tissue Blood; for ALANINE AMINOTRANSFERASE / ALBUMIN / ALKALINE PHOSPHATASE / ASPARTATE AMINOTRANSFERASE / BLOOD UREA NITROGEN / CARBON DIOXIDE / CHLORIDE / CHOLESTEROL / CREATINE PHOSPHOKINASE / CREATININE / GLUCOSE / LACTATE DEHYDROGENASE / LIPASE / PHOSPHORUS / POTASSIUM / SODIUM / TOTAL BILIRUBIN / TOTAL PROTEIN / URIC ACID: tissue Plasma
# [1] = 0 mg/kg, 72 h, dose level Control, time 3 day
# [2] = 0 mg/kg, 120 h, dose level Control, time 5 day
# [3] = 250 mg/kg, 72 h, dose level High, time 3 day
smiles,measurement,setting,value
C#C[C@]1(O)CC[C@H]2[C@@H]3CCc4cc(OC)ccc4[C@H]3CC[C@@]21C [MESTRANOL],ABSOLUTE BASOPHIL,[1],0 CELLS/uL
same,ABSOLUTE EOSINOPHIL,[1],0 CELLS/uL
same,ABSOLUTE LYMPHOCYTE,[1],12269.67 CELLS/uL
same,ABSOLUTE MONOCYTE,[1],160.33 CELLS/uL
same,ABSOLUTE SEGMENTED NEUTROPHIL,[1],970 CELLS/uL
same,BASOPHIL,[1],0%
same,EOSINOPHIL,[1],0%
same,ERYTHROCYTE COUNT,[1],5.76 x10E6/uL
same,HEMATOCRIT,[1],36.57%
same,HEMOGLOBIN,[1],14.22 G/DL
same,LEUKOCYTE COUNT,[1],13.4 x10E3/uL
same,LYMPHOCYTE,[1],91.67%
same,MEAN CORPUSCULAR HEMOGLOBIN,[1],24.67 pg
same,MEAN CORPUSCULAR HEMOGLOBIN CONCENTRATION,[1],38.85 G/DL
same,MEAN CORPUSCULAR VOLUME,[1],63.52 fL
same,MONOCYTE,[1],1.17%
same,NEUTROPHIL,[1],7.17%
same,NUCLEATED RED BLOOD CELLS,[1],0.33 /100WBC
same,PLATELET COUNT,[1],1250.83 x10E3/uL
same,ALANINE AMINOTRANSFERASE,[1],49.17 u/L
same,ALBUMIN,[1],4.33 G/DL
same,ALKALINE PHOSPHATASE,[1],378.5 u/L
same,ASPARTATE AMINOTRANSFERASE,[1],82.17 u/L
same,BLOOD UREA NITROGEN,[1],15 mg/dL
same,CARBON DIOXIDE,[1],34.33 mmol/L
same,CHLORIDE,[1],99.17 MEQ/L
same,CHOLESTEROL,[1],71.17 mg/dL
same,CREATINE PHOSPHOKINASE,[1],258.67 u/L
same,CREATININE,[1],0.18 mg/dL
same,GLUCOSE,[1],142.67 mg/dL
same,LACTATE DEHYDROGENASE,[1],154.33 u/L
same,LIPASE,[1],9 u/L
same,PHOSPHORUS,[1],11.67 mg/dL
same,POTASSIUM,[1],7.13 MEQ/L
same,SODIUM,[1],142.22 MEQ/L
same,TOTAL BILIRUBIN,[1],0.18 mg/dL
same,TOTAL PROTEIN,[1],5.77 G/DL
same,URIC ACID,[1],1.55 mg/dL
same,ABSOLUTE BASOPHIL,[2],0 CELLS/uL
same,ABSOLUTE EOSINOPHIL,[2],23.33 CELLS/uL
same,ABSOLUTE LYMPHOCYTE,[2],14943.67 CELLS/uL
same,ABSOLUTE MONOCYTE,[2],32 CELLS/uL
same,ABSOLUTE SEGMENTED NEUTROPHIL,[2],1084.33 CELLS/uL
same,BASOPHIL,[2],0%
same,EOSINOPHIL,[2],0.17%
same,ERYTHROCYTE COUNT,[2],5.71 x10E6/uL
same,HEMATOCRIT,[2],35.28%
same,HEMOGLOBIN,[2],14.27 G/DL
same,LEUKOCYTE COUNT,[2],16.08 x10E3/uL
same,LYMPHOCYTE,[2],93%
same,MEAN CORPUSCULAR HEMOGLOBIN,[2],25.02 pg
same,MEAN CORPUSCULAR HEMOGLOBIN CONCENTRATION,[2],40.43 G/DL
same,MEAN CORPUSCULAR VOLUME,[2],61.82 fL
same,MONOCYTE,[2],0.17%
same,NEUTROPHIL,[2],6.67%
same,NUCLEATED RED BLOOD CELLS,[2],0.33 /100WBC
same,PLATELET COUNT,[2],1274 x10E3/uL
same,ALANINE AMINOTRANSFERASE,[2],54.17 u/L
same,ALBUMIN,[2],4.22 G/DL
same,ALKALINE PHOSPHATASE,[2],373.17 u/L
same,ASPARTATE AMINOTRANSFERASE,[2],81.83 u/L
same,BLOOD UREA NITROGEN,[2],16.67 mg/dL
same,CARBON DIOXIDE,[2],30.33 mmol/L
same,CHLORIDE,[2],99 MEQ/L
same,CHOLESTEROL,[2],71 mg/dL
same,CREATINE PHOSPHOKINASE,[2],273.5 u/L
same,CREATININE,[2],0.22 mg/dL
same,GLUCOSE,[2],141.83 mg/dL
same,LACTATE DEHYDROGENASE,[2],153.67 u/L
same,LIPASE,[2],10.33 u/L
same,PHOSPHORUS,[2],11.38 mg/dL
same,POTASSIUM,[2],7.08 MEQ/L
same,SODIUM,[2],142.75 MEQ/L
same,TOTAL BILIRUBIN,[2],0.18 mg/dL
same,TOTAL PROTEIN,[2],6.1 G/DL
same,URIC ACID,[2],1.67 mg/dL
same,ABSOLUTE BASOPHIL,[3],0 CELLS/uL
same,ABSOLUTE EOSINOPHIL,[3],55.33 CELLS/uL
same,ABSOLUTE LYMPHOCYTE,[3],13434.33 CELLS/uL
same,ABSOLUTE MONOCYTE,[3],105 CELLS/uL
same,ABSOLUTE SEGMENTED NEUTROPHIL,[3],1338.67 CELLS/uL
same,BASOPHIL,[3],0%
same,EOSINOPHIL,[3],0.33%
same,ERYTHROCYTE COUNT,[3],5.62 x10E6/uL
same,HEMATOCRIT,[3],34.97%
same,HEMOGLOBIN,[3],13.77 G/DL
same,LEUKOCYTE COUNT,[3],14.93 x10E3/uL
same,LYMPHOCYTE,[3],89.67%
same,MEAN CORPUSCULAR HEMOGLOBIN,[3],24.5 pg
same,MEAN CORPUSCULAR HEMOGLOBIN CONCENTRATION,[3],39.37 G/DL
same,MEAN CORPUSCULAR VOLUME,[3],62.23 fL
same,MONOCYTE,[3],0.67%
same,NEUTROPHIL,[3],9.33%
same,NUCLEATED RED BLOOD CELLS,[3],0 /100WBC
same,PLATELET COUNT,[3],1230 x10E3/uL
same,ALANINE AMINOTRANSFERASE,[3],46.67 u/L
same,ALBUMIN,[3],4.03 G/DL
same,ALKALINE PHOSPHATASE,[3],693.33 u/L
same,ASPARTATE AMINOTRANSFERASE,[3],67.67 u/L
same,BLOOD UREA NITROGEN,[3],10.33 mg/dL
same,CARBON DIOXIDE,[3],32 mmol/L
same,CHLORIDE,[3],102.67 MEQ/L
same,CHOLESTEROL,[3],11.33 mg/dL
same,CREATINE PHOSPHOKINASE,[3],168.67 u/L
same,CREATININE,[3],0.16 mg/dL
same,GLUCOSE,[3],157 mg/dL
same,LACTATE DEHYDROGENASE,[3],250.33 u/L
same,LIPASE,[3],7.33 u/L
same,PHOSPHORUS,[3],11.57 mg/dL
same,POTASSIUM,[3],6.36 MEQ/L
same,SODIUM,[3],145.73 MEQ/L
same,TOTAL BILIRUBIN,[3],0.23 mg/dL
same,TOTAL PROTEIN,[3],5.73 G/DL
